According to US6274715A, “Tricyclic erythromycin derivatives” (priority 1997, dated 2001):
Converted amounts (≈) assume the structure as drawn.

Key:
Format in all cases: cell-based
ESCHERICHIA COLI SS = test: In vitro antibacterial activity, MIC, BHI agar dilution; details: E. coli SS, unit assumed
[1] = tested on: STAPHYLOCOCCUS AUREUS CMX 642A; test: as above; details: S. aureus CMX 642A, unit assumed
[2] = tested on: STAPHYLOCOCCUS AUREUS CMX 553; test: as above; details: S. aureus CMX 553, unit assumed
ESCHERICHIA COLI H560 = test: as above; details: E. coli H560, unit assumed
[3] = tested on: PSEUDOMONAS AERUGINOSA DPHD-2862; test: as above; details: P. aeruginosa DPHD-2862, unit assumed
[4] = tested on: PSEUDOMONAS AERUGINOSA K799/61; test: as above; details: P. aeruginosa K799/61, unit assumed
H. Influenza Dill AMP R = test: In vitro antibacterial activity against H. Influenza Dill AMP R, MIC; details: separate assay, unit assumed
Experimental: Representative compounds of the present invention were assayed in vitro for antibacterial activity as follows: Twelve petri dishes containing successive aqueous dilutions of the test compound mixed with 10 mL of sterilized Brain Heart Infusion (BHI) agar (Difco 0418-01-5) were prepared. Each plate was inoculated with 1:100 (or 1:10 for slow-growing strains, such as Micrococcus and Streptococcus) dilutions of up to 32 different microorganisms, using a Steers replicator block. The inoculated plates were incubated at 35-37° C. for 20 to 24 hours. In addition, a control plate, using BHI agar containing no test compound, was prepared and incubated at the beginning and end of each test.
After incubation, each plate was visually inspected. The minimum inhibitory concentration (MIC) was defmed as the lowest concentration of drug yielding no growth, a slight haze, or sparsely isolated colonies on the inoculum spot as compared to the growth control.
In a separate assay representative compounds of the invention were assayed in vitro for antibacterial activity against the H. Influenza Dill AMP R strain, according to the protocol described above.

[5] = tested on: PSEUDOMONAS AERUGINOSA DPHD-5263; test: In vitro antibacterial activity, MIC, BHI agar dilution; details: P. aeruginosa DPHD-5263, unit assumed
[6] = tested on: STAPHYLOCOCCUS AUREUS A5177; test: as above; details: S. aureus A5177, unit assumed
STR[…] 508 = test: as above; details: S. agalactiae CMX 508, unit assumed
Summary of the method: (§1)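 MIC was read visually as the lowest drug concentration showing no growth, a slight haze or sparsely isolated colonies relative to a compound-free BHI plate. Plates held serial aqueous dilutions in BHI agar, were spot-inoculated with 1:100 (or 1:10) culture dilutions and incubated 20 to 24 hours at 35-37° C.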

EN[…] ATCC 8043 = test: as above; details: E. faecium ATCC 8043, unit assumed
Summary of the method: as §1

M[…] ATCC 4698 = test: as above; details: M. luteus ATCC 4698, unit assumed
Summary of the method: as §1

M[…] ATCC 9341 = test: as above; details: M. luteus ATCC 9341, unit assumed
Summary of the method: as §1

[7] = tested on: PROVIDENCIA STUARTII CMX 640; details: P. stuartii CMX 640; BHI agar; unit assumed
[8] = tested on: STREPTOCOCCUS PYOGENES EES61; test: In vitro antibacterial activity, MIC, BHI agar dilution; details: S. pyogenes EES61, unit assumed
ESCHERICHIA COLI DC-2 = test: as above; details: E. coli DC-2, unit assumed
[9] = tested on: PSEUDOMONAS AERUGINOSA BMH10; test: as above; details: P. aeruginosa BMH10, unit assumed
[10] = tested on: STAPHYLOCOCCUS AUREUS 1775; test: as above; details: S. aureus 1775, unit assumed
[11] = tested on: PSEUDOMONAS AERUGINOSA 5007; test: as above; details: P. aeruginosa 5007, unit assumed
[12] = tested on: STAPHYLOCOCCUS AUREUS A-5278; test: as above; details: S. aureus A-5278, unit assumed
[13] = tested on: STAPHYLOCOCCUS AUREUS ATCC 6538P; test: as above; details: S. aureus ATCC 6538P, 35-37° C., 20 to 24 hours, unit assumed
[14] = tested on: STREPTOCOCCUS PYOGENES 930; test: as above; details: S. pyogenes 930, unit assumed
[15] = tested on: STREPTOCOCCUS BOVIS A-5169; test: as above; details: S. bovis A-5169, unit assumed
ESCHERICHIA COLI JUHL = details: E. coli JUHL; BHI agar; unit assumed
[16] = tested on: STREPTOCOCCUS PYOGENES PIU 2548; test: In vitro antibacterial activity, MIC, BHI agar dilution; details: S. pyogenes PIU 2548, unit assumed
PSEUDOMONAS CEPACIA 296I = test: as above; details: P. cepacia 296I, unit assumed
[17] = tested on: MYCOBACTERIUM SMEGMATIS ATCC 114; test: as above; details: M. smegmatis ATCC 114, unit assumed
[18] = tested on: STAPHYLOCOCCUS AUREUS NCTC10649M; test: as above; details: S. aureus NCTC10649M, unit assumed
[19] = tested on: KLEBSIELLA PNEUMONIAE ATCC 8045; test: as above; details: K. pneumoniae ATCC 8045, unit assumed
ESCHERICHIA COLI KNK 437 = details: E. coli KNK 437; BHI agar; unit assumed
CANDIDA ALBICANS CCH 442 = test: In vitro antibacterial activity, MIC, BHI agar dilution; details: C. albicans CCH 442, unit assumed
[20] = tested on: ENTEROBACTER AEROGENES ATCC 13048; test: as above; details: E. aerogenes ATCC 13048, unit assumed
[21] = tested on: PSEUDOMONAS AERUGINOSA K799/WT; test: as above; details: P. aeruginosa K799/WT, unit assumed
[22] = tested on: STAPHYLOCOCCUS EPIDERMIDIS 3519; details: S. epidermidis 3519; BHI agar; unit assumed

Row | SMILES | MIC (ESCHERICHIA COLI SS) | MIC [1] | MIC [2] | MIC (ESCHERICHIA COLI H560) | MIC [3] | MIC [4] | MIC (H. Influenza Dill AMP R) | MIC [5] | MIC [6] | MIC (STR[…] 508) | MIC (EN[…] ATCC 8043) | MIC (M[…] ATCC 4698) | MIC (M[…] ATCC 9341) | MIC [7] | MIC [8] | MIC (ESCHERICHIA COLI DC-2) | MIC [9] | MIC [10] | MIC [11] | MIC [12] | also measured
1 | CC[C@H]1OC(=O)[C@H](C)C(=O)[C@H](C)[C@@H](O[C@@H]2O[C@H](C)C[C@H](N(C)C)[C@H]2O)[C@](C)(OC)C[C@@H](C)C2=NC[C@H](COCc3ccccc3)N3C(=O)O[C@@]1(C)[C@H]3[C@H]2C [Example 41] | 0.2 µg/mL (≈ 0.264 µM) | 0.05 µg/mL (≈ 0.066 µM) | 0.05 µg/mL (≈ 0.066 µM) | 1.56 µg/mL (≈ 2.06 µM) | 50 µg/mL (≈ 66 µM) | 0.2 µg/mL (≈ 0.264 µM) | 2 µg/mL (≈ 2.64 µM) | 12.5 µg/mL (≈ 16.5 µM) | 0.05 µg/mL (≈ 0.066 µM) | 0.02 µg/mL (≈ 0.0264 µM) | 0.02 µg/mL (≈ 0.0264 µM) | 0.1 µg/mL (≈ 0.132 µM) | 0.01 µg/mL (≈ 0.0132 µM) | 50 µg/mL (≈ 66 µM) | 0.01 µg/mL (≈ 0.0132 µM) | 3.1 µg/mL (≈ 4.09 µM) | 50 µg/mL (≈ 66 µM) | > 100 µg/mL | 50 µg/mL (≈ 66 µM) | > 100 µg/mL | MIC [13]: 0.05 µg/mL (≈ 0.066 µM); MIC [14]: > 100 µg/mL; MIC [15]: ≤ 0.005 µg/mL; MIC (ESCHERICHIA COLI JUHL): 6.2 µg/mL (≈ 8.18 µM); MIC [16]: 0.2 µg/mL (≈ 0.264 µM); MIC (PSEUDOMONAS CEPACIA 296I): 12.5 µg/mL (≈ 16.5 µM); MIC [17]: 0.2 µg/mL (≈ 0.264 µM); MIC [18]: 0.05 µg/mL (≈ 0.066 µM); MIC [19]: 25 µg/mL (≈ 33 µM); MIC (ESCHERICHIA COLI KNK 437): 6.2 µg/mL (≈ 8.18 µM); MIC (CANDIDA ALBICANS CCH 442): > 100 µg/mL
2 | CC[C@H]1OC(=O)[C@H](C)C(=O)[C@H](C)[C@@H](O[C@@H]2O[C@H](C)C[C@H](N(C)C)[C@H]2O)[C@](C)(OC)C[C@@H](C)C2=NC[C@H](COCc3cccc(F)c3)N3C(=O)O[C@@]1(C)[C@H]3[C@H]2C [Example 72] | 0.39 µg/mL (≈ 0.503 µM) | 0.1 µg/mL (≈ 0.129 µM) | 0.1 µg/mL (≈ 0.129 µM) | 12.5 µg/mL (≈ 16.1 µM) | > 100 µg/mL | 0.39 µg/mL (≈ 0.503 µM) | 2 µg/mL (≈ 2.58 µM) | > 100 µg/mL | 0.1 µg/mL (≈ 0.129 µM) | 0.01 µg/mL (≈ 0.0129 µM) | 0.05 µg/mL (≈ 0.0644 µM) | 0.2 µg/mL (≈ 0.258 µM) | ≤ 0.005 µg/mL | > 100 µg/mL | 0.01 µg/mL (≈ 0.0129 µM) | 25 µg/mL (≈ 32.2 µM) | 50 µg/mL (≈ 64.4 µM) | > 100 µg/mL | 100 µg/mL (≈ 129 µM) | > 100 µg/mL | MIC [20]: 50 µg/mL (≈ 64.4 µM); MIC [21]: 50 µg/mL (≈ 64.4 µM); MIC [22]: 0.2 µg/mL (≈ 0.258 µM); MIC [13]: 0.1 µg/mL (≈ 0.129 µM); MIC [14]: 50 µg/mL (≈ 64.4 µM); MIC [15]: ≤ 0.005 µg/mL; MIC (ESCHERICHIA COLI JUHL): 50 µg/mL (≈ 64.4 µM); MIC [16]: 0.39 µg/mL (≈ 0.503 µM); MIC (PSEUDOMONAS CEPACIA 296I): 50 µg/mL (≈ 64.4 µM); MIC [17]: 0.39 µg/mL (≈ 0.503 µM); MIC [18]: 0.1 µg/mL (≈ 0.129 µM); MIC (ESCHERICHIA COLI KNK 437): 50 µg/mL (≈ 64.4 µM); MIC (CANDIDA ALBICANS CCH 442): > 100 µg/mL
